Drawing on patent publication US20120122924A1, “NAMPT INHIBITORS” (ABBOTT LABORATORIES, priority 2010, published 2012), this text covers IC50 for 11 molecules.

By IC50 is commonly meant the concentration that gives 50% inhibition.

For the assay, the target named is recombinant, human, C-terminally-His tagged NAMPT (Homo sapiens, UniProt P43490). The experiment in a line: Time-Resolved Fluorescence Resonance Energy Transfer (TR-FRET) binding assay of NAMPT. The note with it: 6.8 nM NAMPT, 200 nM probe (Oregon Green 488-conjugated APO866), 1 nM Tb-anti-His antibody, 2-3 hours. Put shortly:
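Competition binding with 6.8 nM His-tagged NAMPT, 1 nM Tb-anti-His antibody and 200 nM Oregon Green 488-APO866 probe in HEPES pH 7.5 buffer with MgCl2 and DTT, 2–3 h. Excitation 337 nm; 520/492 nm emission ratio used for IC50.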

Chain of recombinant, human, C-terminally-His tagged NAMPT (P43490 whole entry): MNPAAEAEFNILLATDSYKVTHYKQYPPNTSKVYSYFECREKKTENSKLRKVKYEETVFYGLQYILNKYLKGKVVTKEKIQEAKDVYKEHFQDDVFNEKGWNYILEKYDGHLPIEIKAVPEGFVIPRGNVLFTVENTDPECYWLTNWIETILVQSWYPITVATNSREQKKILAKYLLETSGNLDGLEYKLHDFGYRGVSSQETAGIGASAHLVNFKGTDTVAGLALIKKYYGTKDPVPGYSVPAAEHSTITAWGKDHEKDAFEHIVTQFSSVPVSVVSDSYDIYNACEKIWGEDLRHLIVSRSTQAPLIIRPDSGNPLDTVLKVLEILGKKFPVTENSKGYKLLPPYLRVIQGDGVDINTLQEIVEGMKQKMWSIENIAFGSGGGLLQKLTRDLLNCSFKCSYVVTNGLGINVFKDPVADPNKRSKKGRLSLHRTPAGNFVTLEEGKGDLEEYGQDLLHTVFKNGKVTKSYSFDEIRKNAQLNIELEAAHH

For the molecule `O=C(Nc1ccc(NC(=O)N2CCc3ccccc3C2)cc1)c1ccn[nH]1` [Example 88, N-{4-[(1H-pyrazol-5-ylcarbonyl)amino]phenyl}-3,4-dihydroisoquinoline-2(1H)-carboxamide], the IC50 is 134 nM.
The figure for `O=C(Nc1ccc(NC(=O)N2CCc3ccccc3C2)cc1)c1cn[nH]c1` [Example 89, N-{4-[(1H-pyrazol-4-ylcarbonyl)amino]phenyl}-3,4-dihydroisoquinoline-2(1H)-carboxamide] is 203 nM; for `O=C(Nc1ccc(NC(=O)N2CCc3ccccc3C2)cc1)c1ccno1` [Example 90, N-{4-[(1,2-oxazol-5-ylcarbonyl)amino]phenyl}-3,4-dihydroisoquinoline-2(1H)-carboxamide] it is 314 nM.
Then `O=C(Cc1ccccn1)Nc1ccc(NC(=O)N2CCc3ccccc3C2)cc1` [Example 91, N-{4-[(pyridin-2-ylacetyl)amino]phenyl}-3,4-dihydroisoquinoline-2(1H)-carboxamide], with 16 nM; and `CN(C)CCC(=O)Nc1ccc(NC(=O)N2CCc3ccccc3C2)cc1` [Example 92, N-{4-[(N,N-dimethyl-beta-alanyl)amino]phenyl}-3,4-dihydroisoquinoline-2(1H)-carboxamide], with 5840 nM; and `O=C(CCN1CCCCC1)Nc1ccc(NC(=O)N2CCc3ccccc3C2)cc1` [Example 93, N-(4-{[3-(piperidin-1-yl)propanoyl]amino}phenyl)-3,4-dihydroisoquinoline-2(1H)-carboxamide], with 530 nM.
The figure for `O=C(CN1CCOCC1)Nc1ccc(NC(=O)N2CCc3ccccc3C2)cc1` [Example 94, N-{4-[(morpholin-4-ylacetyl)amino]phenyl}-3,4-dihydroisoquinoline-2(1H)-carboxamide] is 69.2 nM; for `O=C(CCN1CCOCC1)Nc1ccc(NC(=O)N2CCc3ccccc3C2)cc1` [Example 95, N-(4-{[3-(morpholin-4-yl)propanoyl]amino}phenyl)-3,4-dihydroisoquinoline-2(1H)-carboxamide] it is 158 nM.
Consider `CN1CCN(CCC(=O)Nc2ccc(NC(=O)N3CCc4ccccc4C3)cc2)CC1` [Example 96, N-(4-{[3-(4-methylpiperazin-1-yl)propanoyl]amino}phenyl)-3,4-dihydroisoquinoline-2(1H)-carboxamide], for which the IC50 worked out at 128 nM.
The figure for `O=C(Nc1ccc(C(F)(F)F)cc1)N1CCc2ccccc2C1` [Example 97, N-[4-(trifluoromethyl)phenyl]-3,4-dihydroisoquinoline-2(1H)-carboxamide] is 1490 nM; for `CS(=O)(=O)Nc1cccc2c1CCN(C(=O)Nc1ccc(NC(=O)CC3CCCC3)cc1)C2` [Example 98, N-{4-[(cyclopentylacetyl)amino]phenyl}-5-[(methylsulfonyl)amino]-3,4-dihydroisoquinoline-2(1H)-carboxamide] it is 3 nM.
